Data reported in PubChem BioAssay (NCI).
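Growth conditions: 96-well plates. Treatment: test compound, 48 hours, 5 concentrations. Analysis: linear interpolation between bracketing concentrations; unreached endpoints set to highest concentration. TGI denotes the concentration required for complete inhibition of growth.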

Experiments:
Assay in all cases: growth of human tumour cells (NCI), 48 h
[1] = tested on: HL-60(TB) leukemia
[2] = tested on: SK-MEL-28 melanoma
[3] = tested on: NCI-H23 lung
[4] = tested on: HCT-116 colon
[5] = tested on: DMS 114 small cell lung
[6] = tested on: HOP-62 NSCLC
[7] = tested on: KM20L2 colon
[8] = tested on: NCI-H226 lung
[9] = tested on: M14 melanoma
[10] = tested on: SNB-78 CNS
[11] = tested on: SNB-75 CNS
[12] = tested on: SK-OV-3 ovarian
[13] = tested on: SN12C renal
[14] = tested on: HCC-2998 colon
[15] = tested on: M19-MEL melanoma
[16] = tested on: DMS 273 small cell lung
[17] = tested on: ACHN renal
[18] = tested on: SNB-19 CNS
[19] = tested on: RPMI-8226 leukemia
[20] = tested on: XF 498 CNS
[21] = tested on: SK-MEL-2 melanoma
[22] = tested on: MOLT-4 leukemia
[23] = tested on: SF-539 CNS
[24] = tested on: SR leukemia
[25] = tested on: UACC-257 melanoma
[26] = tested on: SF-268 CNS
[27] = tested on: 786-0 renal
[28] = tested on: KM12 colon
[29] = tested on: TK-10 renal
[30] = tested on: LXFL 529 NSCLC
[31] = tested on: EKVX NSCLC
[32] = tested on: IGROV1 ovarian
[33] = tested on: MALME-3M melanoma
[34] = tested on: UO-31 renal
[35] = tested on: SF-295 CNS
[36] = tested on: K-562 leukemia
[37] = tested on: HCT-15 colon
[38] = tested on: OVCAR-8 ovarian
[39] = tested on: HT29 colon
[40] = tested on: NCI-H522 lung
[41] = tested on: HOP-18 NSCLC
[42] = tested on: U251 CNS
[43] = tested on: CCRF-CEM leukemia
[44] = tested on: OVCAR-3 ovarian
[45] = tested on: OVCAR-5 ovarian
[46] = tested on: COLO 205 colon
[47] = tested on: OVCAR-4 ovarian
[48] = tested on: A549 NSCLC
[49] = tested on: NCI-H460 lung
[50] = tested on: SK-MEL-5 melanoma
[51] = tested on: CAKI-1 renal
[52] = tested on: A498 renal
[53] = tested on: SW-620 colon
[54] = tested on: RXF 393 renal
[55] = tested on: LOX IMVI melanoma
[56] = tested on: HOP-92 NSCLC
[57] = tested on: UACC-62 melanoma
[58] = tested on: DLD-1 colon
[59] = tested on: RXF-631 renal

In the case of `COc1ccccc1N1C(=O)/C(=C/c2ccc(N(CCC#N)CCC#N)cc2C)N=C1c1cc([N+](=O)[O-])ccc1Cl`, the TGI [1] is reported as > 100 µM, the TGI [2] is reported as > 100 µM and the TGI [3] is reported as > 100 µM. For the same compound, the TGI [4] was > 100 µM, the TGI [5] was > 100 µM and the TGI [6] was > 100 µM. The TGI [7] was > 100 µM, the TGI [8] was > 100 µM and the TGI [9] was > 100 µM. For the same compound, the TGI [10] was > 100 µM, the TGI [11] was > 100 µM and the TGI [12] was > 100 µM. For the same compound, the TGI [13] was > 100 µM, the TGI [14] was > 100 µM and the TGI [15] was 56.3 µM. For the same compound, the TGI [16] was > 100 µM, the TGI [17] was > 100 µM and the TGI [18] was > 100 µM. The TGI [19] was > 100 µM, the TGI [20] was > 100 µM and the TGI [21] was > 100 µM. For the same compound, the TGI [22] was > 100 µM, the TGI [23] was > 100 µM and the TGI [24] was > 100 µM. For the same compound, the TGI [25] was > 100 µM, the TGI [26] was > 100 µM and the TGI [27] was > 100 µM. For the same compound, the TGI [28] was > 100 µM, the TGI [29] was > 100 µM and the TGI [30] was > 100 µM. The TGI [31] was > 100 µM, the TGI [32] was > 100 µM and the TGI [33] was > 100 µM. The TGI [34] was > 100 µM, the TGI [35] was > 100 µM and the TGI [36] was > 100 µM. For the same compound, the TGI [37] was > 100 µM, the TGI [38] was > 100 µM and the TGI [39] was > 100 µM. For the same compound, the TGI [40] was > 100 µM, the TGI [41] was > 100 µM and the TGI [42] was > 100 µM. The TGI [43] was > 100 µM, the TGI [44] was > 100 µM and the TGI [45] was > 100 µM. The TGI [46] was > 100 µM, the TGI [47] was 71.7 µM and the TGI [48] was > 100 µM. For the same compound, the TGI [49] was > 100 µM, the TGI [50] was > 100 µM and the TGI [51] was > 100 µM. For the same compound, the TGI [52] was > 100 µM.
With `O=C(Nc1cc(Cl)c(Cl)cc1Cl)C(=O)C1C=CCS1(=O)=O` (stereo unspecified) the TGI [1] was > 100 µM, the TGI [2] was > 100 µM and the TGI [53] was > 100 µM. For the same compound, the TGI [3] was > 100 µM, the TGI [4] was > 100 µM and the TGI [5] was > 100 µM. The TGI [6] was > 100 µM, the TGI [7] was > 100 µM and the TGI [8] was > 100 µM. For the same compound, the TGI [9] was > 100 µM, the TGI [10] was > 100 µM and the TGI [11] was > 100 µM. The TGI [12] was > 100 µM, the TGI [13] was > 100 µM and the TGI [14] was > 100 µM. For the same compound, the TGI [15] was > 100 µM, the TGI [16] was > 100 µM and the TGI [17] was > 100 µM. For the same compound, the TGI [18] was > 100 µM, the TGI [19] was > 100 µM and the TGI [21] was > 100 µM. For the same compound, the TGI [22] was > 100 µM, the TGI [54] was > 100 µM and the TGI [55] was > 100 µM. For the same compound, the TGI [23] was > 100 µM, the TGI [24] was > 100 µM and the TGI [25] was > 100 µM. For the same compound, the TGI [26] was > 100 µM, the TGI [27] was > 100 µM and the TGI [28] was > 100 µM. For the same compound, the TGI [29] was > 100 µM, the TGI [30] was > 100 µM and the TGI [56] was > 100 µM. The TGI [31] was > 100 µM, the TGI [32] was > 100 µM and the TGI [33] was > 100 µM. The TGI [57] was > 100 µM, the TGI [34] was > 100 µM and the TGI [35] was > 100 µM. For the same compound, the TGI [36] was > 100 µM, the TGI [37] was > 100 µM and the TGI [38] was > 100 µM. The TGI [39] was > 100 µM, the TGI [40] was > 100 µM and the TGI [41] was > 100 µM. The TGI [42] was > 100 µM, the TGI [43] was > 100 µM and the TGI [44] was > 100 µM. For the same compound, the TGI [45] was > 100 µM, the TGI [46] was > 100 µM and the TGI [47] was > 100 µM. For the same compound, the TGI [58] was > 100 µM, the TGI [48] was > 100 µM and the TGI [49] was > 100 µM. For the same compound, the TGI [50] was > 100 µM, the TGI [51] was > 100 µM and the TGI [52] was > 100 µM.
`CC[C@@H]1OC2(C)CC(S(=O)(=O)c3ccccc3O)CC1O2` (stereo partly specified) was tested, and the TGI [1] was > 100 µM, the TGI [2] was > 100 µM and the TGI [53] was > 100 µM. For the same compound, the TGI [3] was > 100 µM, the TGI [4] was > 100 µM and the TGI [6] was > 100 µM. For the same compound, the TGI [7] was > 100 µM, the TGI [8] was > 100 µM and the TGI [9] was > 100 µM. For the same compound, the TGI [59] was > 100 µM, the TGI [11] was > 100 µM and the TGI [12] was > 100 µM. For the same compound, the TGI [13] was > 100 µM, the TGI [14] was > 100 µM and the TGI [15] was > 100 µM. For the same compound, the TGI [16] was > 100 µM, the TGI [17] was > 100 µM and the TGI [18] was > 100 µM. For the same compound, the TGI [19] was > 100 µM, the TGI [21] was > 100 µM and the TGI [22] was > 100 µM. For the same compound, the TGI [54] was > 100 µM, the TGI [23] was > 100 µM and the TGI [24] was > 100 µM. The TGI [25] was > 100 µM, the TGI [26] was > 100 µM and the TGI [27] was > 100 µM. For the same compound, the TGI [28] was > 100 µM, the TGI [30] was > 100 µM and the TGI [56] was > 100 µM. For the same compound, the TGI [31] was > 100 µM, the TGI [32] was > 100 µM and the TGI [33] was > 100 µM. For the same compound, the TGI [57] was > 100 µM, the TGI [34] was > 100 µM and the TGI [35] was > 100 µM. The TGI [36] was > 100 µM, the TGI [37] was > 100 µM and the TGI [38] was > 100 µM. For the same compound, the TGI [40] was > 100 µM, the TGI [41] was > 100 µM and the TGI [42] was > 100 µM. The TGI [43] was > 100 µM, the TGI [44] was > 100 µM and the TGI [45] was > 100 µM. For the same compound, the TGI [46] was > 100 µM, the TGI [47] was > 100 µM and the TGI [58] was > 100 µM. For the same compound, the TGI [48] was > 100 µM, the TGI [49] was > 100 µM and the TGI [50] was > 100 µM. The TGI [51] was > 100 µM.
`CCN(CC)CSc1nc2ccccc2o1` was tested, and the TGI [1] was > 100 µM, the TGI [2] was > 100 µM and the TGI [3] was > 100 µM. The TGI [4] was > 100 µM, the TGI [5] was > 100 µM and the TGI [6] was > 100 µM. For the same compound, the TGI [9] was > 100 µM, the TGI [10] was > 100 µM and the TGI [59] was > 100 µM. The TGI [12] was > 100 µM, the TGI [15] was > 100 µM and the TGI [16] was > 100 µM. For the same compound, the TGI [17] was > 100 µM, the TGI [18] was > 100 µM and the TGI [22] was > 100 µM. For the same compound, the TGI [54] was > 100 µM, the TGI [24] was > 100 µM and the TGI [25] was > 100 µM. For the same compound, the TGI [28] was > 100 µM, the TGI [29] was > 100 µM and the TGI [56] was > 100 µM. The TGI [31] was > 100 µM, the TGI [32] was > 100 µM and the TGI [57] was > 100 µM. The TGI [34] was > 100 µM, the TGI [35] was > 100 µM and the TGI [38] was > 100 µM. The TGI [39] was > 100 µM, the TGI [40] was > 100 µM and the TGI [42] was > 100 µM. The TGI [43] was > 100 µM, the TGI [45] was > 100 µM and the TGI [48] was > 100 µM. The TGI [49] was > 100 µM and the TGI [52] was > 100 µM.
`O=C(Nc1ccc(Cl)cc1Cl)C(=O)Nn1c(=S)[nH]c2ccccc2c1=O` was tested, and the TGI [1] was > 100 µM, the TGI [2] was > 100 µM and the TGI [4] was > 100 µM. The TGI [5] was > 100 µM, the TGI [9] was > 100 µM and the TGI [10] was > 100 µM. The TGI [59] was > 100 µM, the TGI [12] was > 100 µM and the TGI [14] was > 100 µM. The TGI [15] was > 100 µM, the TGI [16] was > 100 µM and the TGI [19] was > 100 µM. For the same compound, the TGI [21] was > 100 µM, the TGI [22] was > 100 µM and the TGI [54] was > 100 µM. The TGI [24] was > 100 µM, the TGI [26] was > 100 µM and the TGI [27] was > 100 µM. The TGI [30] was > 100 µM, the TGI [33] was > 100 µM and the TGI [34] was > 100 µM. For the same compound, the TGI [36] was > 100 µM, the TGI [37] was > 100 µM and the TGI [40] was > 100 µM. For the same compound, the TGI [41] was > 100 µM, the TGI [42] was > 100 µM and the TGI [43] was > 100 µM. The TGI [44] was > 100 µM, the TGI [48] was > 100 µM and the TGI [49] was > 100 µM.
